Read-outs that look alike come from different tables or passages of the source.
Experiments:
HEK293 cells = experiment: HEK293 cytotoxicity, CellTiter-Glo, 48 h; conditions: for inhibition at 10 µM: Homo sapiens, HEK293, read-out: HEK293 inhibition (%); for HEK293 inhibition (%): growth inhibition at 10 µM, ± SD
[1] = target: T. brucei cathepsin L-like protease (TbrCATL) (Trypanosoma brucei rhodesiense, UniProt Q95PM0); experiment: TbrCATL inhibition assay, Z-FR-AMC substrate; assay type: biochemical; conditions: for SI TbrCATL: IC50 hCatL/IC50 TbrCATL
Chain of T. brucei cathepsin L-like protease (TbrCATL) (Q95PM0 1-450): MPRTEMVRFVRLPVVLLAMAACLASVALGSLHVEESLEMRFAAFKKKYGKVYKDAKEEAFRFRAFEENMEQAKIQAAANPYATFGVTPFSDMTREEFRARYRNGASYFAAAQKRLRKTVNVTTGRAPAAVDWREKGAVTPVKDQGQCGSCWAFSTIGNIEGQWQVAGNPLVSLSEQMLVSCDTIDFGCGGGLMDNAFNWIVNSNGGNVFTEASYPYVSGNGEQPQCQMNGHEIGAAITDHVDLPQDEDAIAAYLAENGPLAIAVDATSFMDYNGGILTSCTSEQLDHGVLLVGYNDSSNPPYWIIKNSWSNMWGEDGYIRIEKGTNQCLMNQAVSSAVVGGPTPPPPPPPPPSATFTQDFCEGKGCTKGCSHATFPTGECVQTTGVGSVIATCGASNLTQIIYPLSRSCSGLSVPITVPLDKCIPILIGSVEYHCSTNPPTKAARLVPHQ
Procedure: (§1) All experiments were performed in a 384-well black microplate, using a Synergy HTX (Biotek) plate reader at 25 °C with absorption/emission wavelengths of 360/460 nm. Assays were performed in triplicate wells and DMSO was used as a vehicle control. Enzyme activity was measured and normalized to DMSO controls, and the inhibitor E-64 (10 μM) was used as a positive control for all assays. Experiments were performed in triplicate, with at least two independent assays (n = 6 data points). IC50 values were determined through nonlinear regression. The data obtained were analyzed using GraphPad Prism 9.0 (GraphPad Software, La Jolla, California, US).
The screening assay was performed using 0.5 nM of TbrCATL diluted in 0.1 M sodium acetate, 1 mM dithiothreitol (DTT), and 0.01% Triton X-100, pH 5.5. TbrCATL was expressed and purified as described. Enzyme the compound (10 μM), were incubated for 10 min at room temperature. Then the substrate, Z-Phe-Arg-amidomethylcoumarin (Z-FR-AMC; Sigma-Aldrich, C9521), was added (30 μL diluted in the same assay buffer) to yield a final concentration of 2.5 μM and the assay allowed to proceed for 10 min. […] For those compounds inhibiting enzyme activity by >85%, DR assays were performed over 15 2-fold serial dilutions starting at 0.5 or 20 μM.

HepG2 cells = experiment: HepG2 cytotoxicity, CellTiter-Glo, 48 h; conditions: for inhibition at 10 µM: Homo sapiens, HepG2, read-out: HepG2 inhibition (%); for HepG2 inhibition (%): growth inhibition at 10 µM, ± SD
[2] = DPPH radical scavenging (antioxidant) assay; conditions: after 2 h, mean ± SEM
[3] = system: T. brucei brucei Lister 427; experiment: T. b. brucei Lister 427 bloodstream-form growth inhibition, SYBR Green viability assay, 72 h; assay type: cell-based, Trypanosoma brucei brucei
in vitro [4] = conditions: human, CC50 HEK293 (μM)
[5] = target: T1, human cathepsin L (hCatL) (Homo sapiens, UniProt P07711); experiment: hCatL inhibition assay, Z-FR-AMC substrate; assay type: biochemical; conditions: mean ± SD, two experiments in triplicate (n = 6)
T1 construct: purchased R&D Systems 952-CY
T1 sequence (P07711 114-333): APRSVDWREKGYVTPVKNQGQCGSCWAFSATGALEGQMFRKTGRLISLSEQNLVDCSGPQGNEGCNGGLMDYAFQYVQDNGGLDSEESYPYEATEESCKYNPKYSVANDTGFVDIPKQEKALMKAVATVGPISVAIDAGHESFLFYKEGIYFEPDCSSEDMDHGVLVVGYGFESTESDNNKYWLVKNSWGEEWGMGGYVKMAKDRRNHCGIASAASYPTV
Procedure: as §1
Recombinant hCatL was purchased from R&D Systems (952-CY) and activated according to the manufacturers protocol. This enzyme, hCatL, is used to test compounds’ selectivity because it is the human homologue of TbrCATL. The assay was modified from, using 25 pM of the enzyme diluted in 40 mM sodium acetate, 5 mM DTT, 100 mM NaCl, 1 mM EDTA and 0.01% Triton X-100, pH 5.5. Enzyme and compound (10 μM), were incubated for 30 min at room temperature. Then Z-FR-AMC was added (30 μL diluted in the same assay buffer) to yield a final concentration of 25 μM and the assay allowed to proceed for 10 min. DR assays were performed over 15 2-fold serial dilutions starting at 0.5 or 20 μM.

cruzain (Cz) = conditions: cited from earlier work
T. cruzi CAI/72 = conditions: cited from earlier work
in vitro [6] = conditions: human, CC50 HepG2 (μM)
C2C12 cells = conditions: read-out: Toxicity CC50 C2C12 cells; cited from earlier work
[7] = pharmacokinetic study; ref previous work; cited from earlier work
[8] = at 10 μM, read-out: TbrCATL inhibition (%)
[9] = Trypanosoma brucei, growth inhibition at 10 µM, ± SD
[10] = growth inhibition at 10 µM, ± SD
[11] = read-out: TbrCATL inhibition (%), at 10 μM
[12] = Trypanosoma brucei, three independent experiments in duplicate (n = 6) ± SD, read-out: EC50 T. brucei
[13] = growth inhibition at 10 µM, ± SD, 10 µM

## C/C(=N\NC(N)=S)c1ccc(C)cc1 [SO1]
HEK293 cells
  inhibition at 10 µM: 30 ± 3%
[1]; [8]
  inhibition at 10 µM: 80%
HepG2 cells
  inhibition at 10 µM: 50 ± 4%
[2]; 0.06 mg/ml
  % inhibited DPPH: 45.00 ± 8.33%
[3]; [9]
  inhibition at 10 µM: 44 ± 7%

## O=C1O[C@H]([C@@H](O)CO)C(O)=C1O [ASC, ascorbic acid, reference compound]
[2]; 0.015 mg/ml
  % inhibited DPPH: 76.00 ± 3.52%
[2]; 0.03 mg/ml
  % inhibited DPPH: 80.33 ± 0.33%
[2]; 0.06 mg/ml
  % inhibited DPPH: 80.33 ± 0.67%

## Cc1c(C)c2c(c(C)c1O)CCC(C)(C(=O)O)O2 (stereo not shown) [TRO, Trolox, reference compound]
[2]; 0.015 mg/ml
  % inhibited DPPH: 79.33 ± 1.33%
[2]; 0.03 mg/ml
  % inhibited DPPH: 79.33 ± 0.882%
[2]; 0.06 mg/ml
  % inhibited DPPH: 79.67 ± 0.67%

## COc1ccc(C(C)=NNc2nc(C)cs2)cc1.Cl [SC2]
HEK293 cells
  HEK293 inhibition (%): 33 ± 8%
HepG2 cells
  HepG2 inhibition (%): 6 ± 3%
[3]; [10]
  T. brucei inhibition (%): 27 ± 5%

## C/C(=N\Nc1nc(C)c[se]1)c1cccc([N+](=O)[O-])c1 [SeC5]
HEK293 cells
  inhibition at 10 µM: 81 ± 7%
[1]
  SI TbrCATL: 25
[1]; at 10 μM
  TbrCATL inhibition (%): 98.02%
[1]; [11]
  inhibition at 10 µM: > 85%
In vitro [4]
  CC50: 9 ± 1.36 µM
HepG2 cells
  inhibition at 10 µM: 77 ± 6%
[5]
  IC50: 0.175 ± 0.0437 µM
Cruzain (Cz)
  IC50: 0.00899 ± 0.00556 µM
T. cruzi CAI/72
  EC50: 0.31 ± 0.18 µM
In vitro [6]
  CC50: 11.3 ± 0.97 µM
[2]; 0.015 mg/ml
  % inhibited DPPH: 77.33 ± 0.88%
[2]; 0.03 mg/ml
  % inhibited DPPH: 78.00 ± 1.73%
[2]; 0.06 mg/ml
  % inhibited DPPH: 78.33 ± 1.76%
[3]; [12]
  EC50: 10.5 ± 1.02 µM
[3]; [13]
  T. brucei inhibition (%): 100 ± 2%
[3]; growth inhibition at 10 µM, ± SD, listed as Se C5, 10 µM
  T. brucei inhibition (%): > 70%
C2C12 cells
  CC50: > 10 µM
[7]
  oral bioavailability: favorable oral bioavailability

## N=C(N)c1ccc(OCCCCCOc2ccc(C(=N)N)cc2)cc1 [Pentamidine, reference compound]
[3]; Trypanosoma brucei
  inhibition at 10 µM: 100 ± 2%
[3]; Trypanosoma brucei, read-out: EC50 T. brucei (μM)
  EC50: 0.014 ± 0.002 µM

## C/C(=N\NC(N)=[Se])C12CC3CC(CC(C3)C1)C2 [SeO11]
HEK293 cells
  HEK293 inhibition (%): 100 ± 4%
HEK293 cells; read-out: CC50 HEK293, three independent experiments in duplicate
  CC50: 10.5 ± 0.36 µM
HepG2 cells
  HepG2 inhibition (%): 66 ± 5%
HepG2 cells; read-out: CC50 HepG2, three independent experiments in duplicate
  CC50: 6.01 ± 0.69 µM
[3]; [13]
  T. brucei inhibition (%): 100 ± 1%
[3]; growth inhibition at 10 µM, ± SD, listed as Se O11, 10 µM
  T. brucei inhibition (%): > 70%
[3]; three independent experiments in duplicate (n = 6) ± SD, read-out: EC50 T. brucei
  EC50: 5.16 ± 1.06 µM

## C/C(=N\Nc1nc(C)cs1)C12CC3CC(CC(C3)C1)C2.Cl [SC11]
HEK293 cells
  HEK293 inhibition (%): 39 ± 3%
HepG2 cells
  HepG2 inhibition (%): 0 ± 13%
[3]; [10]
  T. brucei inhibition (%): 19 ± 8%

## C/C(=N\Nc1nc(C)cs1)c1ccc(Br)cc1 [SC3]
HEK293 cells
  inhibition at 10 µM: 64 ± 2%
[1]; [8]
  inhibition at 10 µM: 54%
HepG2 cells
  inhibition at 10 µM: 46 ± 7%
[2]; 0.015 mg/ml
  % inhibited DPPH: 68.00 ± 3.06%
[2]; 0.03 mg/ml
  % inhibited DPPH: 69.33 ± 2.33%
[2]; 0.06 mg/ml
  % inhibited DPPH: 67.00 ± 2.31%
[3]; [9]
  inhibition at 10 µM: 38 ± 9%

## C/C(=N\Nc1nc(C)c[se]1)c1ccc(Br)cc1 [SeC3]
HEK293 cells
  inhibition at 10 µM: 88 ± 3%
[1]; IC50 TbrCATL (nM), mean ± SD, two experiments in triplicate (n = 6)
  IC50: 201.7 ± 0.92 nM
[1]
  SI TbrCATL: 4
[1]; at 10 μM
  TbrCATL inhibition (%): 101.02%
[1]; [11]
  inhibition at 10 µM: > 85%
In vitro [4]
  CC50: 5.9 ± 1.22 µM
HepG2 cells
  inhibition at 10 µM: 80 ± 2%
[5]
  IC50: 0.793 ± 0.0665 µM
In vitro [6]
  CC50: 4.68 ± 0.14 µM
[2]; 0.015 mg/ml
  % inhibited DPPH: 35.00 ± 18.82%
[2]; 0.03 mg/ml
  % inhibited DPPH: 71.00 ± 3.06%
[2]; 0.06 mg/ml
  % inhibited DPPH: 75.67 ± 1.45%
[3]; [12]
  EC50: 6.04 ± 0.72 µM
[3]; [13]
  T. brucei inhibition (%): 99 ± 2%
[3]; growth inhibition at 10 µM, ± SD, listed as Se C3, 10 µM
  T. brucei inhibition (%): > 70%
C2C12 cells
  CC50: > 10 µM
